Literature values, collected in patent US20200281890A1, “COMPOSITIONS COMPRISING CANNABIDIOL, TETRAHYDROCANNABINOL, TERPENES, AND […] USE THEREOF IN THE TREATMENT OF INSOMNIA” (CANOPY HEALTH INNOVATIONS, priority 2017, published 2020).

Key:
[1] = target: CB1 receptor (Homo sapiens, UniProt P21554)
[2] = target: CB2 receptor (Homo sapiens, UniProt P34972)
[3] = system: mice, rats, gerbils and non-human primates
[4] = system: a2-adrenergic receptor
[5] = target: T1, 5-HT1A receptor (Homo sapiens, UniProt P08908)
T1 sequence (P08908 1-422): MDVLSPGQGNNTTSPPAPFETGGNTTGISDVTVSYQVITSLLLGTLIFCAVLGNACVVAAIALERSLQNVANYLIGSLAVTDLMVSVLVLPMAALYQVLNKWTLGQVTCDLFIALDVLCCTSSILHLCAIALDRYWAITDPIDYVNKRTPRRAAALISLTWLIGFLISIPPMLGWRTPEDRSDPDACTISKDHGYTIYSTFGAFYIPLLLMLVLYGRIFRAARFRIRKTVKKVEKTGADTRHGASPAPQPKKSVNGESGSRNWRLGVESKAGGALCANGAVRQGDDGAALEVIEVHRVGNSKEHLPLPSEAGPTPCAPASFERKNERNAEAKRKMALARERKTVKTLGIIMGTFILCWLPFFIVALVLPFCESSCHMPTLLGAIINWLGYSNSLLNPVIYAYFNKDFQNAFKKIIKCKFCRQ

[6] = system: mouse; conditions: up to 80 mg/kg

Chain of CB1 receptor (P21554 whole entry): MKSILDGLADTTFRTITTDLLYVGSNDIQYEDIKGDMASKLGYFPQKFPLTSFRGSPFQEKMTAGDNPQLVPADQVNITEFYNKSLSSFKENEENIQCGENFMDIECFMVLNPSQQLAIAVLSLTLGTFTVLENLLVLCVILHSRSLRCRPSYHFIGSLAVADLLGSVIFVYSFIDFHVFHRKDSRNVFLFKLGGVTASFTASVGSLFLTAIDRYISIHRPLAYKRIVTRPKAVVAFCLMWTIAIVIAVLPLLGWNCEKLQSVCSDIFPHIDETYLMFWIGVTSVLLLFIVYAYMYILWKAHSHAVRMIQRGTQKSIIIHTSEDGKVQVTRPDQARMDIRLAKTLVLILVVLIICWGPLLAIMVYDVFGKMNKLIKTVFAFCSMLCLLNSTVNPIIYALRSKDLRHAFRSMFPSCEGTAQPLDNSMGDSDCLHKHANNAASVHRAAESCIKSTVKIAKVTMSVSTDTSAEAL
Chain of CB2 receptor (P34972 whole entry): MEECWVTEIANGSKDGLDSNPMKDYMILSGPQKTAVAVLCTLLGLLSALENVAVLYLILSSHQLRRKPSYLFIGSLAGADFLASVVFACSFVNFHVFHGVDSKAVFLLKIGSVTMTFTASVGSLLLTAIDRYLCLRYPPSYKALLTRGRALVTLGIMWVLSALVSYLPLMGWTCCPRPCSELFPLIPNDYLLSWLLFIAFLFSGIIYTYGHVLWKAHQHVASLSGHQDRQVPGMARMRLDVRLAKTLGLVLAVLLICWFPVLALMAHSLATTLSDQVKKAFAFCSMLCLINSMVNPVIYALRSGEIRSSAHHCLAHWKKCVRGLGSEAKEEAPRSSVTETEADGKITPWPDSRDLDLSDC

SMILES	function at the CB1 receptors [1]	affinity to CB2 receptors relative to CB1 ([2]; lower affinities in comparison to THC)	THC-like activity [3]	a2-adrenergic receptor affinity and function [4]	CB1 receptor affinity and function [1]	5-HT1A receptor affinity and function [5]	CB2 receptor binding and function [2]	effect in mouse tetrad test (locomotor suppression, catalepsy, hypothermia and analgesia) [6]
CCCCCc1cc(O)c2c(c1)OC(C)(C)c1ccc(C)cc1-2 [CBN, cannabinol]	partial agonist	higher affinity to CB2 receptors	–	–	–	–	–	–
CCCCCc1cc(O)c(C/C=C(\C)CCC=C(C)C)c(O)c1 [CBG, cannabigerol]	–	–	does not trigger THC-like activity	high affinity a2-adrenergic receptor agonist	low affinity CB1 receptor antagonist	moderate affinity 5-HT1A receptor antagonist	antagonist	without effect
